In article PMC4659430 (Journal of biomolecular screening, 2015):
“Also recorded” adds a separate entry of the source.

Tests used:
Assay type in all cases: cell-based
human M4 (hM4) [1] = target: T1, human M4 (hM4) (Homo sapiens, UniProt P08173); assay: M4 multiparametric FLIPR calcium assay, antagonist mode; conditions: compound tested at 3 µM, versus EC80 acetylcholine
T1 sequence (P08173 1-479): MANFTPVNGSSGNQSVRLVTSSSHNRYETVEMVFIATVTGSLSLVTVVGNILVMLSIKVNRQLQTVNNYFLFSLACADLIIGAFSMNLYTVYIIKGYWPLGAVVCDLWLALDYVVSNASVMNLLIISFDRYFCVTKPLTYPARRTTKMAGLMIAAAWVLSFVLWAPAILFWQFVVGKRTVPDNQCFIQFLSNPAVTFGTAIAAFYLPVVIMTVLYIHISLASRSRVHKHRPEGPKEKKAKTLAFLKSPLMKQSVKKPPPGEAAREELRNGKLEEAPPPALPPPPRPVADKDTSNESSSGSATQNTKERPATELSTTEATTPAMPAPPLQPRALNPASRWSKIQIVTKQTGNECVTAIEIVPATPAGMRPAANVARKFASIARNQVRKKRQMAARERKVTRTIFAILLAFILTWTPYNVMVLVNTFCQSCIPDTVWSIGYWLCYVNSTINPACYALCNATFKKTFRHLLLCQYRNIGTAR

human M4 (hM4) [2] = target: T1, human M4 (hM4); assay: M4 multiparametric FLIPR calcium assay, agonist mode; conditions: compound tested at 3 µM, versus DMSO
human M4 (hM4) [3] = target: T1, human M4 (hM4); assay: M4 multiparametric FLIPR calcium assay, PAM mode; conditions: compound tested at 3 µM, versus EC20 acetylcholine

| Compound | response in antagonist mode (kinetic trace) (human M4 (hM4) [1]) | response in agonist mode (kinetic trace) (human M4 (hM4) [2]) | response in PAM mode (kinetic trace) (human M4 (hM4) [3]) |
| --- | --- | --- | --- |
| C/C=C(/C)C(=O)O[C@H]1C(C)=C2[C@H]([C@@H]1OC(=O)CCCCCCC)[C@@](C)(OC(C)=O)C[C@H](OC(=O)CCC)[C@@]1(O)[C@H]2OC(=O)[C@@]1(C)O [thapsigargin] | hit in all modes | hit in all modes | hit in all modes |
| COc1ccc(CNC(=O)c2sc3nc(C)cc(C)c3c2N)cc1 [ML108] |  | active; also recorded: yielded responses in the agonist mode | classified as PAMs |
